Tests used:
Format in all cases: toxicity, cell-based
[1] = tested on: HEK-293T; test: Incucyte cell viability with HEK293T; settings: human, 24 h, 10 µM, compound concentration 10 uM
[2] = tested on: Fibroblast; test: Incucyte cell viability with human fibroblast; settings: 24 h, 10 µM, compound concentration 10 uM
[3] = tested on: U2OS; test: Incucyte cell viability with U2OS; settings: human, 24 h, 10 µM, compound concentration 10 uM
Further: unitless GR value; below 1 slowed growth and below 0 cell loss.

SMILES | Growth Rate ([1]; replicate number 1) | Growth Rate ([2]; replicate number 1) | Growth Rate ([2]; replicate number 2) | Growth Rate ([3]; replicate number 1) | Growth Rate ([3]; replicate number 2) | Growth Rate ([1]; replicate number 2)
CC(C)NCC(O)COC(Cn1c2ccccc2c2ccccc21)Cn1c2ccccc2c2ccccc21 (centres undefined) | 1 | 1 | 0.03 | -0.53 | 1 | 
CCC(=O)N1CCOc2c(cc(-c3cc(OC)cc(OC)c3)cc2C(=O)N[C@H]2CCCN(C)C2)C1 | 0.39 | 0.84 | 0.98 | 0.42 | 1 | 0.7
COc1cc2c(NCC3CCN(C)CC3)cc(-c3ccc(C)o3)nc2cc1OCCCN1CCCC1 | -0.36 | 0.34 | -0.3 | -0.64 | -0.51 | -0.29
COc1nc(N)nc(Nc2cc(S(N)(=O)=O)ccc2N[C@@H](c2cccc3c2OC(F)(F)O3)c2ncccc2Cl)n1 | 0.97 | 1 |  | 1 | 0.89 | 1
C=CC(=O)Nc1cccc(-c2c[nH]cc2CN(C)CCN)c1 | 0.75 | 0.37 | 1 | 0.21 | 1 | 0.9
OC1CN=C2c3ccn([C@@H]4O[C@H]([C@H](O)c5ccc(Cl)cc5)[C@@H](O)[C@H]4O)c3N=CN21 (some centres undefined) | 1 | 1 | -0.38 | 1 | 0.79 | 
CC(C)(C)c1ccc(CN(C(=O)CN(Cc2c(F)c(F)c(F)c(F)c2F)S(=O)(=O)c2ccc(F)cc2)c2ccc(C(=O)NO)cc2)cc1 | 0.62 | 0.66 | -0.2 | 0.17 | 1 | 0.53
Cc1ccc(N2C(=O)/C(=C/C=C/c3ccco3)C(=O)NC2=S)cc1Cl | 0.94 | 0.45 | 1 | 1 |  | 1
O=C(NO)c1ccc(CN2CCCc3cc(Cl)ccc32)cc1 | 0.69 | 0.78 | -0.22 | 0 | 0.79 | 0.85
CCCOC(=O)N1CCN(C(=O)c2ccc3c(Cl)cc(-c4ccc(C5(N)CC5)cc4)nc3c2)C[C@H]1C | 0.01 | 1 | -0.86 | 0.52 | 1 | 0.3
Cc1ccc(F)c2cc(C(=O)N[C@@H]3CCC[C@H](N4CC[C@H](N(C)S(C)(=O)=O)C4)C3)[nH]c12 | 0.35 | 1 |  | 1 | 0.67 | 0.62
Cc1cc(-c2ccc3nc(C4CCOCC4)n(CCOC(F)(F)F)c3c2)cn(C)c1=O | 0.62 | 0.36 | -0.06 | -0.23 | 0.68 | 0.67
Cc1ncsc1-c1ccc([C@H](C)NC(=O)[C@@H]2C[C@@H](O)CN2C(=O)[C@@H](NC(=O)CNC(=O)c2ccc(F)c(-c3ccc(N4C[C@@H](C)N(C)[C@@H](C)C4)c(NC(=O)c4c[nH]c(=O)cc4C(F)(F)F)c3)c2)C(C)(C)C)cc1 | 0.6 | -0.11 | 0.89 | 1 | 0.89 | 0.78
CN(C)CCCN(CC[C@H](N)C(=O)O)C[C@H]1O[C@@H](n2cnc3c(N)ncnc32)[C@H](O)[C@@H]1O.O=C(O)C(F)(F)F | 0.85 | 0.74 | 0.03 | 1 |  | 0.98
Cc1nc(F)ccc1-c1cc(Cn2ccn(C)c2=N)cc(C(=O)NCc2ccc(Cl)c(Cl)c2)c1.O=C(O)C(F)(F)F | 0.97 | 0.97 | 0.38 | 1 |  | 0.95
COc1cccc(OC)c1S(=O)(=O)Nc1noc2cc(Cn3cccn3)cc(OC)c12 | 0.71 | 0.79 | 1 | 0.39 | 1 | 0.55

From ChEMBL document CHEMBL5724709, “EUbOPEN Chemogenomics Library - IncuCyte” (2024)
